The text below walks through data of ChEMBL document CHEMBL2021926, “Serendipity in discovery of proteasome inhibitors” (Bioorg Med Chem Lett, 2012).

The nature of test [1]: Inhibition of chymotrypsin-like activity of 26S proteasome.
Test [2] in a line: Inhibition of chymotrypsin-like activity of human liver 26S proteasome using Suc-LLVY-AMC substrate.
Test [3] in a line: Inhibition of chymotrypsin-like activity of 26S proteasome in human Molt4 cells using MeOSuc-Phe-Leu-Phe-AFC substrate. The class given is cell-based. To be noted: MOLT-4.

The term IC50 denotes the point on the concentration scale where inhibition reaches its midpoint. Read a high IC50 as a need for much substance. A word on the EC50: it is the concentration needed to bring the measured effect to its halfway point.

The structures appear in SMILES notation.

For the molecule `CC(C)C[C@@H](C=O)NC(=O)[C@H](CCCN/C(N)=N/[N+](=O)[O-])NC(=O)C(CCCCCCCCN1C(=O)c2ccccc2C1=O)C1CCCC1` (some centres undefined), the IC50 in test [1] came to 2 nM.
As to `CC(C)C[C@@H](C=O)NC(=O)[C@H](CCCN/C(N)=N/[N+](=O)[O-])NC(=O)C(CCCCCCCCC#N)C1CCCC1` (some centres undefined), it took 6 nM to reach half-maximal inhibition in test [1] (IC50).
In test [1], `CC(C)C[C@H](NC(=O)[C@H](CCCN/C(N)=N/[N+](=O)[O-])NC(=O)C(CCCCCCCCC#N)C1CCCC1)C(=O)C(=O)NCCNS(=O)(=O)c1ccccc1` (some centres undefined) registered an IC50 of 1 nM.
With `CC(C)C[C@H](NC(=O)[C@H](CCCN/C(N)=N/[N+](=O)[O-])NC(=O)C(CCCCCCCCC#N)C1CCCC1)B1OC(C)(C)C(C)(C)O1` (some centres undefined), inhibition in test [1] was half-maximal at 6 nM (IC50).
For `COCCOCCOCC(=O)N[C@H](C(=O)N[C@@H](CC(C)C)B1O[C@@H]2C[C@@H]3C[C@@H](C3(C)C)[C@]2(C)O1)[C@@H](C)O`, in test [2], the IC50 is greater than 10 nM.
Same read-out and setting: for `CC(C)C[C@H](NC(=O)[C@@H](NC(=O)OC(C)(C)C)[C@@H](C)O)B1O[C@@H]2C[C@@H]3C[C@@H](C3(C)C)[C@]2(C)O1` the value was greater than 10 nM.
Same read-out and setting: then `CC(C)C[C@H](NC(=O)[C@@H](NC(=O)OCc1ccccc1)[C@@H](C)O)B1O[C@@H]2C[C@@H]3C[C@@H](C3(C)C)[C@]2(C)O1`, with greater than 10 nM.
On the same count and under the same terms, for `CC(C)C[C@H](NC(=O)[C@@H](N)[C@@H](C)O)B1O[C@@H]2C[C@@H]3C[C@@H](C3(C)C)[C@]2(C)O1` the value was greater than 10 nM.
Regarding `CC(C)C[C@H](NC(=O)[C@@H](NC(=O)c1ccccc1)[C@@H](C)O)B1O[C@@H]2C[C@@H]3C[C@@H](C3(C)C)[C@]2(C)O1`, the IC50 in test [2] is greater than 10 nM.
Still for that read-out and setting: for `CCCCCC(=O)N[C@H](C(=O)N[C@@H](CC(C)C)B1O[C@@H]2C[C@@H]3C[C@@H](C3(C)C)[C@]2(C)O1)[C@@H](C)O` the value was greater than 10 nM.
Still for that read-out and setting: for `CC(C)C[C@H](NC(=O)[C@@H](NC(=O)c1cnccn1)[C@@H](C)O)B1O[C@@H]2C[C@@H]3C[C@@H](C3(C)C)[C@]2(C)O1` the value was greater than 10 nM.
`CC(C)C[C@H](NC(=O)[C@H](CCCN/C(N)=N/[N+](=O)[O-])NC(=O)C(CCCCCCCCN1C(=O)c2ccccc2C1=O)C1CCCC1)B1OC2C[C@@H]3C[C@@H](C3(C)C)[C@]2(C)O1` (some centres undefined) gave an IC50 in test [2] of 3.5 nM. The molecule further gave an EC50 in test [3] of 70 nM.
The corresponding values for `CC(C)C[C@H](NC(=O)[C@@H](NC(=O)C(CCCCCCCCN1C(=O)c2ccccc2C1=O)C1CCCC1)[C@@H](C)O)B1O[C@@H]2C[C@@H]3C[C@@H](C3(C)C)[C@]2(C)O1` (mixture of isomers) are 7 nM and 100 nM.
`CC(C)C[C@H](NC(=O)C(NC(=O)[C@H](CC(C)C)NC(=O)OCc1ccccc1)C(C)O)B1O[C@@H]2C[C@@H]3C[C@@H](C3(C)C)[C@]2(C)O1` (single isomer, unassigned): half-maximal inhibition in test [2] (IC50) required 1 nM. For the same molecule, the EC50 in test [3] stood at 120 nM.
The molecule `CC(C)C[C@H](NC(=O)[C@H](Cc1ccccc1)NC(=O)c1cnccn1)B(O)O` [BORTEZOMIB] had an IC50 in test [2] of 4 nM. This molecule registered an EC50 in test [3] of 21 nM.
